The record followed here is patent US20250145608A1, “KRAS DEGRADING COMPOUNDS COMPRISING ANNULATED 2-AMINO-3-CYANO THIOPHENES” (Boehringer Ingelheim Int'l GmbH Corp., priority 2021, published 2025).

Format in all cases: cell-based
Experiment [1] relates to GP5d cells. Nature of the experiment: GP5d cell proliferation assay (colorectal cancer, G12D), 5 days. Particulars: Homo sapiens, 120 h. An outline of the steps:
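Cells in DMEM + 10% FCS received logarithmic compound dilutions (DMSO-normalized) and were grown for 5 days. Viability read by CellTiter-Glo luminescence as percent of DMSO controls, with a T0 reading at compound addition; IC50 from a four-parameter logistic fit.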

Experiment [2] addresses T1, KRAS4B G13D (Homo sapiens, UniProt P01116, G13D).
T1 construct: HiBit; expressed in transfected cells; host or cells: GP5d cells (ECACC 95090715), stably transduced with lentivirus, CMV promoter
Nature of the experiment: HiBit KRAS4B mutant spectrum degradation assay, KRAS4B G13D in GP5d cells (18 h). Particulars: KRAS mutation G13D. The text has this:
(§1) The therapeutically relevant mutant KRAS constructs (WT, G12C, G12D, G12V, G13D) were obtained by site directed mutagenesis using a KRAS4B WT cDNA construct as a template. GP5d cells (ECACC Cat. No. 95090715) were transduced with lentiviral vectors expressing mutant KRAS4B cDNA under control of a CMV promoter. Stably transduced cells were selected using a neomycin selectable marker encoded on the construct.
(§2) To assess PROTAC-mediated degradation of various KRAS mutants, GP5d cells stably transduced with KRAS4B constructs as described above were seeded at 25000 cells per well in 100 μL Dulbecco's Modified Eagle medium (Sigma cat. no. D6429) supplemented with 10% fetal calf serum into white bottom opaque 96 well plates (Perkin Elmer cat no. 5680). Plates were incubated at 37° C., 5% CO2 in a humidified incubator over night to allow the cells to adhere. […] Plates were further incubated at 37° C. for 18 hours. Following incubation, 100 μL per well Promega Nano-Glo HiBit lytic detection reagent mix (Promega Nano-Glo HiBit Lytic Detection System #N3050), prepared according to the manufacturer's instructions in the kit, were added. To allow for adequate cell lysis, plates were incubated on an orbital shaker for 15 min and further incubated 30 min at room temperature. Upon completion of cell lysis, luminescence was measured using an Envision plate reader using the Ultrasensitive Luminescence Protocol for 96 well plates. Luminescence levels were normalized by the values obtained with DMSO-treated samples and plotted as percent of DMSO control. DC50 values were computed using a four parametric logistic model and are reported in nM in Table 65 for representative example (Ex.) compounds of the invention. Dmax values represent the maximal extent of degradation observed and is stated as percent of control (% Ctrl.) treatments in Table 66 for representative example (Ex.) compounds of the invention.

Experiment [3] deals with T2, KRAS4B G12C (Homo sapiens, UniProt P01116, G12C).
T2 construct: HiBit; expressed in transfected cells; host or cells: GP5d cells (ECACC 95090715), stably transduced with lentivirus, CMV promoter
T2 sequence (P01116 1-188 isoform P01116-2 G12C): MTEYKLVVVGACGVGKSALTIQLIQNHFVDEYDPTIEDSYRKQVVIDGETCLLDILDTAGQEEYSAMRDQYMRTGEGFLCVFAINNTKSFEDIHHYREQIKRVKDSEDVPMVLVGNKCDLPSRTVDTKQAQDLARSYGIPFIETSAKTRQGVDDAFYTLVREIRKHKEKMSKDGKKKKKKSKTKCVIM
In words: HiBit KRAS4B mutant spectrum degradation assay, KRAS4B G12C in GP5d cells (18 h). The conditions noted are these: KRAS mutation G12C.
Excerpt: as §1, §2

Experiment [4] addresses T3, KRAS4B WT (Homo sapiens, UniProt P01116).
T3 construct: HiBit; expressed in transfected cells; host or cells: GP5d cells (ECACC 95090715), stably transduced with lentivirus, CMV promoter
Nature of the experiment: HiBit KRAS4B mutant spectrum degradation assay, KRAS4B WT in GP5d cells (18 h). The conditions noted are these: KRAS mutation G12WT.
Excerpt: as §1, §2

T1 sequence (P01116 1-188 isoform P01116-2 G13D): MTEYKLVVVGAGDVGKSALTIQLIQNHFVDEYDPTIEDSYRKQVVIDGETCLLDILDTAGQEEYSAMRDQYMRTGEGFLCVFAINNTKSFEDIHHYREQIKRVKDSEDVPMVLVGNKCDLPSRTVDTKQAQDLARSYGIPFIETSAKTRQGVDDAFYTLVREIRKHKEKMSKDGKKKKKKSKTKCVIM
T3 sequence (P01116 1-188 isoform P01116-2): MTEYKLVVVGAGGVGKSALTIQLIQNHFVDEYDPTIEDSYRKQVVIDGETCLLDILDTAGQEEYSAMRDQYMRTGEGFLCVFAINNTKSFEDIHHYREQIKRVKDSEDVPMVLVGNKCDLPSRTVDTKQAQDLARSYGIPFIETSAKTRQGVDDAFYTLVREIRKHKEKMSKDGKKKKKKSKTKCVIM

In the case of `Cc1ncsc1-c1ccc(CNC(=O)[C@@H]2C[C@@H](O)CN2C(=O)[C@H](c2cc(OCCCN3CCCN(c4nccc(-c5noc([C@@]6(C)CCCc7sc(N)c(C#N)c76)n5)n4)[C@@H](C)C3)no2)C(C)C)cc1` (single isomer, unassigned) [I-24], inhibition in experiment [1] was half-maximal at 766 nM (IC50).

`Cc1ncsc1-c1ccc(CNC(=O)[C@@H]2C[C@@H](O)CN2C(=O)[C@@H](c2cc(OCCCCN3CCCN(c4nccc(-c5noc([C@@]6(C)CCCc7sc(N)c(C#N)c76)n5)n4)[C@@H](C)C3)no2)C(C)C)cc1` (single isomer, unassigned) [I-27]: the DC50 in experiment [2] was 1.6 nM; in experiment [3], 3.7 nM; in experiment [4] it was 0.7 nM. Also, the “Dmax at 18 h” value in experiment [2] was determined as 93 % Ctrl; in experiment [3], 83 % Ctrl; in experiment [4], 95.5 % Ctrl. In experiment [1], half-maximal inhibition (IC50) was put at 4 nM.

On to `Cc1ncsc1-c1ccc([C@@H](NC(=O)[C@@H]2C[C@@H](O)CN2C(=O)[C@H](C(C)C)n2cc(OCCCCN3CCCN(c4nccc(-c5noc([C@@]6(C)CCCc7sc(N)c(C#N)c76)n5)n4)[C@@H](C)C3)nn2)[C@H](C)O)cc1` (single isomer, unassigned) [I-41], for which the DC50 in experiment [2] worked out at 0.8 nM; in experiment [3], 1.2 nM; in experiment [4] it was 0.5 nM. The entries for the “Dmax at 18 h” value in experiment [2], in experiment [3] and in experiment [4] were 89.7 % Ctrl, 96.2 % Ctrl and 98.0 % Ctrl, respectively.

For `Cc1ncsc1-c1ccc([C@H](CO)NC(=O)[C@@H]2C[C@@H](O)CN2C(=O)[C@H](C(C)C)n2cc(OC(C)CCCN3CCCN(c4nccc(-c5noc([C@@]6(C)CCCc7sc(N)c(C#N)c76)n5)n4)[C@@H](C)C3)nn2)cc1` (stereo partly shown) [I-31], the 50% degradation concentration (DC50) in experiment [2] turned out to be 2.7 nM; in experiment [3] it was 3.6 nM; in experiment [4] it was 1.7 nM. Further, the “Dmax at 18 h” value in experiment [2] is 89.7 % Ctrl; in experiment [3], 94.7 % Ctrl; in experiment [4], 97.5 % Ctrl.

`Cc1ncsc1-c1ccc([C@H](CO)NC(=O)[C@@H]2C[C@@H](O)CN2C(=O)[C@H](C(C)C)n2cc(OCCCCN3CCCN(c4nccc(-c5noc([C@@]6(C)CCCc7sc(N)c(C#N)c76)n5)n4)[C@@H](C)C3)nn2)cc1` [I-29]: the DC50 in experiment [2] came out at 1.2 nM; in experiment [3] it was 1.4 nM; in experiment [4], 0.8 nM. Besides, the “Dmax at 18 h” value amounted to 89.7 % Ctrl in experiment [2], 95.6 % Ctrl in experiment [3] and 97.2 % Ctrl in experiment [4].

As to `Cc1ncsc1-c1ccc([C@@H](NC(=O)[C@@H]2C[C@@H](O)CN2C(=O)[C@H](C(C)C)n2cc(OCCCN3CCCN(c4nccc(-c5noc([C@@]6(C)CCCc7sc(N)c(C#N)c76)n5)n4)[C@@H](C)C3)nn2)[C@H](O)C(C)C)cc1` (single isomer, unassigned) [I-43], the DC50 in experiment [2] was determined as 1.1 nM; in experiment [3], 1.1 nM; in experiment [4], 0.5 nM. The “Dmax at 18 h” value in experiment [2] came out at 90.4 % Ctrl; in experiment [3], 95.6 % Ctrl; in experiment [4], 98.1 % Ctrl.

Regarding `Cc1ncsc1-c1ccc([C@H](CO)NC(=O)[C@@H]2C[C@@H](O)CN2C(=O)[C@H](C(C)C)n2cc(OCCCC(C)N3CCCN(c4nccc(-c5noc([C@@]6(C)CCCc7sc(N)c(C#N)c76)n5)n4)[C@@H](C)C3)nn2)cc1` (stereo partly shown) [I-30], the figures for the DC50 in experiment [2], in experiment [3] and in experiment [4] were 1 nM, 1.2 nM and 0.4 nM, respectively. Also, the “Dmax at 18 h” value was 91.9 % Ctrl in experiment [2], 95.6 % Ctrl in experiment [3] and 97.8 % Ctrl in experiment [4].

On to `Cc1ncsc1-c1ccc(CNC(=O)[C@@H]2C[C@@H](O)CN2C(=O)[C@@H](c2cc(OCCCN3CCCN(c4nccc(-c5noc([C@@]6(C)CCCc7sc(N)c(C#N)c76)n5)n4)[C@@H](C)C3)no2)C(C)C)cc1` (single isomer, unassigned) [I-25], for which the DC50 in experiment [2] came to 2.5 nM; in experiment [3], 1.9 nM; in experiment [4], 0.8 nM. Further, the “Dmax at 18 h” value in experiment [2] is given as 94 % Ctrl; in experiment [3], 92.5 % Ctrl; in experiment [4], 96 % Ctrl. The same molecule yielded an IC50 in experiment [1] of 3.97 nM.

Regarding `Cc1ncsc1-c1ccc(CNC(=O)[C@@H]2C[C@@H](O)CN2C(=O)C(c2cc(OCCCCN3CCCN(c4nccc(-c5cc([C@@]6(C)CCCc7sc(N)c(C#N)c76)on5)n4)[C@@H](C)C3)no2)C(C)C)cc1` (stereo partly shown) [I-4], the IC50 in experiment [1] amounted to 36.1 nM.
